“Also recorded” adds a separate entry of the source. Like-named read-outs stand apart in the source and are kept apart here. Ends that are not written are not given here. Peptide text beside a SMILES is read from it.
Experiments:
[1] = tested on: cerebellar microexplants; assay: cerebellar microexplant survival assay, 3-NP/glutamate injury; assay type: cell-based, rat; conditions: for neuroprotective activity compared to NRP-5 RG / concentration of maximal neuroprotective effect: NRP-5 RG analogues
Experimental: Toxicological and drug administration experiments were designed such that 1/100 parts of toxin and neuroprotective drug were administered simultaneously to the freshly prepared cerebellar microexplants derived from P-4 or P8 rats. Glutamate was prepared as a 50 mM stock solution in MilliQ water while 50 mM 3-nitropropionic acid was pH-adjusted (pH 6.8-7.2) in MilliQ water. The concentrations of the oxidative stress inducing toxin, 3-nitropropionic acid (3-NP), and the excitotoxin, glutamate, in the assay were 0.5 mM each. Lyophilized peptides were reconstituted in PBS or 100 μg/ml human transferrin as a 10 μM stock solution. Subsequently, serial dilutions were made. Cerebellar microexplants were cultivated for 48-72 hours at 34° C., 5% CO2 in air and 100% humidity before they were fixed by increasing amounts of paraformaldehyde (0.4%, 1.2%, 3% and 4%—each treatment 2-3 min).
For statistical analysis of survival, four fields (each field having an area of 0.65 mm^2) of each fixed cerebellar culture with the highest cell densities were chosen, and cells displaying neurite outgrowth were counted. Statistical significance was measured by Student's t-test.
(§1) Laminated cerebellar cortex was extracted from P3/4, P7/8 rat pups and triturated through gauze having a 125 μm pore size to obtain uniformly sized microexplants. After centrifugation for 3 minutes at 61 g and the pellet was resuspended in StartV medium (Biochrom) and the suspension seeded on poly-D-lysine coated coverslips in 6-well plates and incubated for 3 hrs to allow adherence, before 1 ml StartV per well was added. As described previously, glutamate/3-NP and NRP were also added. The explants are cultivated at 34° C. at 5% CO2 and 100% humidity for 48-72 hrs. BrdU was administered at start of cultivation for proliferation rate measurements and cells are counted per microscopic field after 48-72 hrs.
Cerebellar Microexplants were prepared as described in Example 9 with the addition of SDF-1 as described, in addition to glutamate/3-NP, and NRP.
Cerebellar microexplants were prepared as described in Example 9 with the addition of SDF-1, Wortmannin and PD98059 (both Calbiochem), as described, in addition to glutamate/3-NP, and NRP.

[2] = tested on: MEB-5 cells; assay: haptotactic migration assay, MEB-5 cells; assay type: cell-based, mouse; conditions: 10 ng/ml coating, 200,000 cells
Experimental: (§2) NRPs were tested for migration-inducing/chemoattractive activity on mouse neural stem cells, EGF-dependent immortalized mouse neural stem cell line MEB5 and wild-type PC-12 cells in a haptotactic migration assay as described below.
(§3) Initial NRP Coating. Control wells of Transwell plates (Coming) with 12 μm pore size were coated in 1.5 ml of the BSA/PBS vehicle. Remaining plates were coated using various concentrations of NRPs ranging between 1-100 ng/ml (prepared in PBS containing 10 ug/ml BSA). The plates were then incubated at 37° C. for 1 hr to coat. Wells were then rinsed 2× with 1 ml sterile PBS.
(§4) Laminin ([…]) for MEB-5 cells, PDL (50 μg/ml)+Matrigel for mouse primary stem cells and fibronectin (25 ug/ml)+matrigel for PC-12 cells were used as extracellular matrix (ECM) coating for the cells. All ECM compounds were diluted in PBS. 1.5 ml of the ECM per well was incubated for 2 hrs at room temperature. The wells were then rinsed once with Iml serum-free media (e.g. NB/B27) followed by 1 ml PBS wash.
(§5) A 5 ug/mL PDL/PLL mixture (in PBS) was used to coat inserts. Subsequently the inserts were rinsed with MilliQ water. […]

[3] = tested on: mouse neural stem cells; assay: haptotactic migration assay, mouse neural stem cells; assay type: cell-based
Experimental: as §2, §3, §4
A 5 ug/mL PDL/PLL mixture (in PBS) was used to coat inserts. Subsequently the inserts were rinsed with MilliQ water.
Transferring to Media and Cell Seeding: Appropriate medium (MEB-5 cells: DMEM-high glucose+N2 (growth medium supplement from Invitrogen)+10 ng/biotin+2 mM L-glutamine, primary stem cells: NSA-medium from Euroclone and for PC-12 cells: NB/B27 medium) was transferred into the 12-well plates. […] Plates were fixed at 1-2 days in vitro (DIV).
Fixation: Inserts were discarded and wells fixed in successive dilutions of PFA (0.4, 1.2, 3 and 4%) for 3-5min in each dilution. […] The wells were rinsed and stored in PBS until counting.
A haptotactic migration assay was performed according to the description of Example 10 using rat NRP-9SD (SEQ ID NO:34) (4 nM) and mouse NRP-7SW (SEQ ID NO:24) (0.4 nM) as attractants in a Boyden chamber

[4] = tested on: wild-type PC-12 cells; assay: haptotactic migration assay, PC-12 cells; assay type: cell-based; conditions: 50 ng/ml coating, 200,000 cells
Experimental: as §2, §3, §4, §5

[5] = tested on: OTCs of rat embryonic forebrain; assay: embryonic forebrain OTC migration assay (medial ganglionic eminence to cortical anlage); assay type: cell-based
Experimental: OTCs of rat embryonic forebrain were prepared as described. Briefly, pregnant rats at E17 gestation were sacrificed, the fetuses rapidly removed. Coronal slices of the forebrain were cut at 400 μm thickness and placed onto millicell PICM ORG50 membranes (Millipore) in 3 cm Petri dishes containing 1 ml of DMEMI/F12, 6.5 mg/ml glucose, 0.1 mM glutamine and 10% FCS for 34 hrs. Afterwards the medium was exchanged to 1 ml Neurobasal/B27, 6.5 mg/ml glucose, 0.1 mM glutamine, to which 10 μl PBS, NRP, or SDF-1 were added for the indicated concentrations and a small DiI (1,1′-dioctodecycyl-3,3,3′3-tetramethylindocarbocyanine) crystal of uniform size was placed in the medial ganglionic eminence (n=10-15) under a stereomicroscope. After 24 hrs cultivation the total number or migrated neurons dispersed in the ganglionic eminence and cortex were counted under an inverted fluorescent microscope.

[6] = tested on: cerebellar microexplants; assay: cerebellar microexplant proliferation assay under injury (BrdU-positive nuclei); assay type: cell-based, rat
Experimental: Using the toxins described above, cerebellar explants were exposed for 24 hours, at the beginning of culturing to dilutions of NRP and 0.1 μM BrdU. Subsequently, 80% of the medium was changed without addition of new toxins and NRPs. The cerebellar cultures were fixed as described above after 3 days in vitro. The detection of the incorporated BrdU level was performed as described previously. Under these conditions, over 99% of the cells in the cerebellar population were neurons. Therefore any increase in cell number after NRP administration was most likely due to neuronal cell proliferation.
For statistical analysis of proliferation four fields (each field having an area of 0.65 mm^2) of each fixed cerebellar culture displaying highest density of BrdU-positive nuclei were chosen, and BrdU-positive nuclei were counted. Statistical significance was measured by Student's t-test.
as §1

[7] = tested on: neural stem cells; assay: neural stem cell differentiation assay, neuronal differentiation and axonal outgrowth; assay type: cell-based, mouse; conditions: together with BrdU for 24 hrs
Experimental: Neural stem cells were derived from E15 C3H mice forebrain and cultured as neurospheres in the presence of 20 ng/ml EGF and 10 ng/ml bFGF as described in Gritti et al. (2001). Briefly, timed pregnant mice were sacrificed and the embryos removed. Under sterile conditions the brains were removed and the forebrains dissected. The tissue was dissociated by trituration and pelleted by 75 g centrifugation for 10 minutes and the cells seeded in non-coated tissue culture flasks in NSA medium with growth factors. For passaging neurospheres were triturated and seeded as single cells.
Upon reaching a sufficient size, neurospheres were dissociated by trituration and plated at a density of 200,000 cells per well on laminin-coated 13 mm diameter coverslips that had been placed in Nunc 24 well plates. The plating medium was a 1:1 mixture of DMEM/F12 supplemented with N2 and Neurobasal supplemented with B27 and 2 mM glutamine. To enhance survival after plating the medium contained 2 ng/ml bFGF. After 24 h the medium was replaced with a neuronal differentiation-promoting medium (1:3 mixture of DMEM/F12 supplemented with N2 and Neurobasal supplemented with B27 and 2 mM glutamine) and except for the controls the test compound or IGF-1 was added simultaneously. The medium with fresh compound was exchanged every other day. Seven days after plating the differentiating cells were incubated for 20 minutes in differentiation medium containing 100 ng/ml Syto21 to label the nuclei of viable cells. Subsequently, they were fixed with 4% paraformaldehyde and immunostained with a mouse anti-βIII tubulin antibody and a goat anti-mouse Cy3-coupled secondary antibody.
After staining the coverslips were removed from the tissue culture plate and mounted on […], using Immunofluore fluorescent mounting medium. To analyse the percentage of neurons of total cells, with a Zeiss axiophot microscope, equipped with Axoivision software, at 20× magnification images of two random fields per well were taken in the red (tubulin stained neurons) and green (Syto21 stained nuclei) fluorescent channel. Neurons and nuclei per field were counted and the neuronal percentage of total cell number determined.

REGRRDAPGRAAA-NH2 [SEQ ID NO:46, NRP-5 RG analogue, C-terminal GG-domain substituted]
only concentration with statistically significant effect [1]: 100 nM | neuroprotective activity compared to NRP-5 RG [1]: had less effect than NRP-5 RP

GTPGRAEAGGQVSPCLAASCSQAYG-NH2 (cysteine pairing not given here) [NRP-4 GG, 25-mer fragment of NRP-4]
more MEB-5 cells migrated compared with BSA-vehicle [2]: 195% | more E14 cells migrated compared with BSA-vehicle ([3]; 10 ng/ml coating, 200,000 cells): 93.7% | more PC-12 cells migrated compared with BSA vehicle [4]: 80.8%

CC(C)C[C@H](NC(=O)[C@H](CS)NC(=O)[C@@H]1CCCN1C(=O)[C@H](Cc1c[nH]cn1)NC(=O)[C@H](CC(C)C)NC(=O)[C@H](CO)NC(=O)CNC(=O)[C@@H]1CCCN1C(=O)[C@H](C)NC(=O)[C@H](CCCNC(=N)N)NC(=O)[C@H](CCCNC(=N)N)NC(=O)[C@H](C)NC(=O)[C@H](CCC(=O)O)NC(=O)[C@@H]1CCCN1C(=O)[C@H](CC(=O)O)NC(=O)[C@@H](N)CCCCN)C(=O)N[C@@H](C)C(=O)N[C@@H](C)C(=O)N[C@@H](CO)C(=O)N[C@@H](CS)C(=O)N[C@@H](CO)C(=O)N[C@@H](C)C(=O)N[C@@H](C)C(=O)NCC(N)=O [NRP-2 segment KG] (H-KDPEARRAPGSLHPCLAASCSAAG-NH2)
cytotoxicity [1]: no cytotoxicity

SEPEARRAQGGQIPSERVLSD-NH2 [NRP-9 segment SD, 21-mer of rat NRP-9]
concentration range of maximal neuronal survival activity ([1]; 0.5 mM 3-NP/glutamate, 48 hrs): 0.1 to 10 pM | cells attracted compared to control condition ([3]; 4 nM): Nearly four times

COc1cccc(-c2cc(=O)c3ccccc3o2)c1N [PD98509, reference compound]
effect of inhibitor alone under vehicle and injury conditions [1]: only modest toxicity | effect of inhibitor / neutralizing antibody on NRP neuroprotective activity ([1]; with NRP-9 SD, antibody 1 μg/ml 72 hours, wortmannin 100 nM): abolished the neuroprotective activity of NRP; also recorded: completely blocked neuroprotective activity | effect of inhibitor on NRP-induced increase in migrating NSC ([3]; NRP-9 SD (4 nM), 15 μM PD98509): almost completely blocked; also recorded: inhibited

COC[C@H]1OC(=O)c2coc3c2[C@@]1(C)C1=C(C3=O)[C@@H]2CCC(=O)[C@@]2(C)C[C@H]1OC(C)=O [wortmannin, reference compound]
effect of inhibitor alone under vehicle and injury conditions ([1]; without NRP): no significant effect after vehicle and injury conditions without the NRP

REGRRDAAAAAGG-NH2 [SEQ ID NO:47, NRP-5 RG analogue, PGR-domain substituted]
neuroprotective activity compared to NRP-5 RG [1]: some neuroprotective effect at certain concentrations | concentrations with some neuroprotective effect ([1]; units in value): 0.1 pM, 10 pM and 100 nM

REAAADAPGRAGG-NH2 [SEQ ID NO:44, NRP-5 RG analogue]
concentration of maximal neuroprotective effect [1]: about 1 pM | neuroprotective activity compared to NRP-5 RG [1]: did not significantly change in the activity profile

SDF-1: chemokine stromal-derived factor, 63 amino acid long mature human SDF-1 [reference compound]
neuroprotection compared to NRP [1]: narrow dose range of efficacy; also recorded: only a limited neuroprotective effect | neuroprotection ([1]; 10 nM, 0.5 mM 3-NP/glutamate 48 hrs): less than 30% | number of cells attracted ([3]; 100 nM coating): attracted a similar number of cells, as did the 0.4 nM mouse NRP-7SW | potency compared to NRP [5]: far less potent than NRP

GTPGRAEAGGQ-NH2 [NRP-4 segment GQ, 11-mer of NRP-4]
concentration range of maximal biological activity for survival ([1]; NRP simultaneous with 3-NP/glutamate, 48 hrs): 10-100 nM | survival rates after severe injury ([1]; nanomolar concentrations): 50% | concentrations with statistically significant effects ([1]; simultaneous, 48 hrs, units in value): 10 pM, 100 pM, 10 nM and 100 nM | up regulation in the proliferation rate compared to injured cerebellar microexplants ([6]; 10 nM): 132.2% | concentration at which proliferation induction was observed ([6]; 3-NP/glutamate, NRP and BrdU 24 hrs, counted after 72 hrs): 10 nM

AAARRDAPGRAGG-NH2 [SEQ ID NO:45, NRP-5 RG analogue]
concentration of maximal neuroprotective effect [1]: about 1 pM | neuroprotective activity compared to NRP-5 RG [1]: even higher neuroprotective activity than the original NRP-5 RG

B1: NRP-9: rat ortholog of mouse NRP-7 (protein)
chain: MLKLNEPKPGVVTSEELTGSGIWSSASGPNCSQHRDGEDGGCGRFINLAGNRTQRGCFPEAFPLLQAEPAEYGGPRSGHRLLRGSRGSEPEARRAQGGQIPSERVLSD
modifications: RAT
proliferation rate during differentiation of NSC [7]: an increase in the proliferation rate

From patent US7563862B2, “Neural regeneration peptides and methods for their use in treatment of brain damage” (Neuren Pharmaceuticals Limited, priority 2001, dated 2009)
